The values that follow come from US11261185B2, “Bicyclic heterocyclic derivatives” (Merck Patent GmbH, priority 2015, dated 2022).

SMILES strings stand for the structures.

This experiment concerns PDH-E1 alpha (pSer300) in HEK293T cells. Nature of the experiment: Cellular immunofluorescence assay for compound activities (PDH-E1 alpha pSer300). Format: cell-based, human. To be noted: 5 hours incubation, Anti-PDH-E1 alpha (pSer300) immunofluorescence, read-out: IC50 (cell data). The procedure: Cellular Assay for Determination of Compound Activities
Compound activities were determined in a cellular immunofluorescence assay. Human HEK293T cells were seeded into black 384-well plates with clear bottom and grown overnight.
Next day, test compounds were added to the wells and the plates incubated for 5 hours. Following this, cells were fixed with formaldehyde, permeabilised and blocked. The primary antibody, Anti-PDH-E1 alpha (pSer300), AP1064 (Merck Millipore) was added and incubated overnight in the plate wells. Next, cells were washed and the seconday antibody, Alexa Fluor 488, goat anti-rabbit ab (A-11008, Invitrogen) was added together with Hoechst 33258 (H3569, Invitrogen) and incubated for 1 hour in the plate wells. Finally, cells were washed and the plates were measured on the laser scanning cytometer acumen hci (TTpLabtech).
The raw data were normalized against a pharmacological inhibitor control and dose response curves were generated by plotting the percent effect values using the software package Genedata screener (Genedata).

In the case of `C[C@@](O)(C(=O)N1CCc2c(ncn2-c2ccc(Cl)cc2)C1)C(F)(F)F` [Compound A45, (R)-1-[1-(4-Chloro-phenyl)-1,4,6,7-tetrahydro-imidazo[4,5-c]pyridin-5-yl]-3,3,3-trifluoro-2-hydroxy-2-methyl-propan-1-one], the IC50 lay within 3 to 50 µM.

Take `C[C@@](O)(C(=O)N1CCc2c(ncn2-c2ccc(F)cc2)C1)C(F)(F)F` [Compound A44, (R)-3,3,3-Trifluoro-1-[1-(4-fluoro-phenyl)-1,4,6,7-tetrahydro-imidazo[4,5-c]pyridin-5-yl]-2-hydroxy-2-methyl-propan-1-one]: the 50% inhibitory concentration (IC50) is 3 to 50 µM.
